# Measured values as given in ChEMBL document CHEMBL1201862, “PubChem BioAssay data set” (2004).
# Activity calls are given as the source filed them.
# Columns and labels:
# INS1 = experiment: beta cell apoptosis inhibitors, cytokine rescue, dose response, luminescence, retest (AID 449756); type: functional, cell-based; settings: Rattus norvegicus;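 further: cell death triggered by IL-1 beta plus TNF-alpha plus IFN-gamma mixture; protective hits raise ATP signal compared with cytokine alone wells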
# [1] = Shn3 3'UTR reporter inhibitors, dose response, cell-based, Clone20 osteoblasts, firefly luciferase, cherry-picked (AID 624132); type: functional;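 further: firefly luciferase luminescence from reporter carrying the Shn3 3'UTR in osteoblasts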
# [2] = target: 26S proteasome non-ATPase regulatory subunit 14 (Homo sapiens, UniProt O00487); experiment: inhibition of proteasome subunit RPN11 – biochemical, fluorescence polarization, uHTS hits, confirmation (AID 602368); type: functional
# [3] = HepG2 cell cytotoxicity, dose response, cytotoxicity control for Shn3 inhibitor project, CellTiter-Glo, cherry-picked (AID 624134); type: functional, cell-based
# [4] = control 3'UTR Renilla luciferase suppression, dose response, counter-screen for Shn3 inhibitor project, cell-based, Clone20-Shn3RL, cherry-picked (AID 624133); type: functional
# [5] = target: 72 kDa type IV collagenase (Homo sapiens, UniProt P08253); experiment: Dose Response validation of uHTS RPN11 inhibitor hits using a MMP-2 Fluorescence assay.; type: functional
# Prothrombin = Prothrombin (Bos taurus, UniProt P00735); experiment: thrombin inhibition, dose response, biochemical, fluorescence polarization, uHTS hits (AID 602369); type: functional
# cells [6] = type: functional, cell-based
# [7] = target: T1, Trace amine-associated receptor 1 (Homo sapiens, UniProt Q96RJ0); experiment: Fluorescence-based cell-based high throughput dose response assay to identify agonists of the human trace amine associated receptor 1 (TAAR1).; type: functional
# T1 sequence (Q96RJ0 whole entry): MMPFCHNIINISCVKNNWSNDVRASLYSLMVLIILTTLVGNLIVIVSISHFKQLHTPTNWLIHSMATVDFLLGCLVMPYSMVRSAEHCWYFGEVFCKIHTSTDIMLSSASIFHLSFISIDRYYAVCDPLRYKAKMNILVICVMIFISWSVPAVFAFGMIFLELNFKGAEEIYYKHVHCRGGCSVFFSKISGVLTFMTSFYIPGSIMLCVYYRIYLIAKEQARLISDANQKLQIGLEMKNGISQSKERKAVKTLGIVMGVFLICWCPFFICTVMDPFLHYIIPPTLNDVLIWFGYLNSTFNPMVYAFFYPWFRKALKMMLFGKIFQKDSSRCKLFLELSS
# [8] = target: T1, Trace amine-associated receptor 1; experiment: Counterscreen for agonists of the human trace amine associated receptor 1 (hTAAR1): Fluorescence-based cell-based high throughput dose response assay to identify hTAAR1 agonist that also desensitize TAAR1 receptor response.; type: functional
# cells [9] = type: functional, cell-based; remark: listed apart in the source
# [10] = target: T2, Corticotropin-releasing factor receptor 2/Corticotropin-releasing factor-binding protein (Homo sapiens, UniProt P24387+Q13324); experiment: Dose Response confirmation of uHTS hits for small molecule antagonists of the CRF-binding protein and CRF-R2 receptor complex.; type: functional; settings: read-out: IC50_Mean
# T2 sequence (Q13324 whole entry): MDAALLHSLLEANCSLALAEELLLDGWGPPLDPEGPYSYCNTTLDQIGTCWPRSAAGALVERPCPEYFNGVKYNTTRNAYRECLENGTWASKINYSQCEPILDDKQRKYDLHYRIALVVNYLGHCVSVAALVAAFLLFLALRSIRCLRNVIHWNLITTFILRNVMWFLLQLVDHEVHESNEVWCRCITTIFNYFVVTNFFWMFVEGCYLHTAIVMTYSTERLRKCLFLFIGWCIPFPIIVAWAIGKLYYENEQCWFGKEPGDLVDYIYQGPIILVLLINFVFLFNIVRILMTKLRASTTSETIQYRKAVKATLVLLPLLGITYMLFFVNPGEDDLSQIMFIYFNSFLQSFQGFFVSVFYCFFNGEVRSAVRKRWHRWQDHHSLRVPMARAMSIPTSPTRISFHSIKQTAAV
# T2 sequence (P24387 whole entry): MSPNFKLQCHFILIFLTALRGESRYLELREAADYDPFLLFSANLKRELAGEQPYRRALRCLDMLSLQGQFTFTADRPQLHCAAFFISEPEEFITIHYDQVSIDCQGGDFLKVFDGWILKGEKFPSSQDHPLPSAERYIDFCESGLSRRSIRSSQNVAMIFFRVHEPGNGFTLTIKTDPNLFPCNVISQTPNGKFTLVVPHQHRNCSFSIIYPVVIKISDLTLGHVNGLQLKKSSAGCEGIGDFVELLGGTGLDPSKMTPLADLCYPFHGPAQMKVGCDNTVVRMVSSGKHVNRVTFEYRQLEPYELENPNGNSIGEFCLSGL
# [11] = target: T2, Corticotropin-releasing factor receptor 2/Corticotropin-releasing factor-binding protein; experiment: activators of CRF receptor 2 with binding protein – uHTS hits, confirmation (AID 602473); type: functional; settings: read-out: EC50_Mean
# [12] = CRF-BP/CRF-R2 complex antagonists, dose response, cell-based, uHTS hits, 384-well (AID 651639); type: functional, Homo sapiens; settings: read-out: IC50_Mean
# [13] = target: T3, Methionyl-tRNA synthetase, putative (Trypanosoma brucei brucei, UniProt Q38C91); type: functional, Trypanosoma brucei brucei strain 927/4 GUTat10.1
# T3 sequence (Q38C91 whole entry): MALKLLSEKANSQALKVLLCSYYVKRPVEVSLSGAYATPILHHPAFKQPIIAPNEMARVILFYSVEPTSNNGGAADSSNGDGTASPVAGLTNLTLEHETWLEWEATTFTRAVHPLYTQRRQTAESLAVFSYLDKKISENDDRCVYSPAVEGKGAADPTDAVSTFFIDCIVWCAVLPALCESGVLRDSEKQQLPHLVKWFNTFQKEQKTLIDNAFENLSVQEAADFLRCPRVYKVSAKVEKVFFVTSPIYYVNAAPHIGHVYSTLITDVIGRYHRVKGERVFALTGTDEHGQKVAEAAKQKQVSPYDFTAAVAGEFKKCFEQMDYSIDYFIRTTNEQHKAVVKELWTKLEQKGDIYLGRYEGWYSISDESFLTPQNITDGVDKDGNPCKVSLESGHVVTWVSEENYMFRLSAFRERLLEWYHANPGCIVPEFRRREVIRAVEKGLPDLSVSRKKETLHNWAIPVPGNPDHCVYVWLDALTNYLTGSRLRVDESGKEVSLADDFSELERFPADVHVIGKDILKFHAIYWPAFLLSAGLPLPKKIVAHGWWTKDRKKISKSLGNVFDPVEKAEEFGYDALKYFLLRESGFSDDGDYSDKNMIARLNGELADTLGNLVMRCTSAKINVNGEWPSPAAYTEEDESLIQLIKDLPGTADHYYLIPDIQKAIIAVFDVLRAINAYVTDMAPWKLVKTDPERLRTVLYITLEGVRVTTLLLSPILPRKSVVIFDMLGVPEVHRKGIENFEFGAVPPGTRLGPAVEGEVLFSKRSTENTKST
# [14] = Counterscreen for inhibitors of Trypanosoma brucei methionyl tRNA synthetase (MetRS): Luminescence-based cell-based high throughput dose response assay to identify compounds that are cytotoxic to Jurkat human T lymphocyte cells.; type: functional
# [15] = target: T3, Methionyl-tRNA synthetase, putative; type: functional, Trypanosoma brucei brucei strain 927/4 GUTat10.1; remark: listed apart in the source
# Beta-galactosidase = Beta-galactosidase (Escherichia coli, UniProt Q8VNN2); experiment: Dose response counterscreen for EBI2 assay utilizing the enzyme, b-galactosidase.; type: functional
# [16] = target: T4, Histone-lysine N-methyltransferase NSD2 (Homo sapiens, UniProt O96028); type: biochemical
# T4 sequence (O96028 whole entry): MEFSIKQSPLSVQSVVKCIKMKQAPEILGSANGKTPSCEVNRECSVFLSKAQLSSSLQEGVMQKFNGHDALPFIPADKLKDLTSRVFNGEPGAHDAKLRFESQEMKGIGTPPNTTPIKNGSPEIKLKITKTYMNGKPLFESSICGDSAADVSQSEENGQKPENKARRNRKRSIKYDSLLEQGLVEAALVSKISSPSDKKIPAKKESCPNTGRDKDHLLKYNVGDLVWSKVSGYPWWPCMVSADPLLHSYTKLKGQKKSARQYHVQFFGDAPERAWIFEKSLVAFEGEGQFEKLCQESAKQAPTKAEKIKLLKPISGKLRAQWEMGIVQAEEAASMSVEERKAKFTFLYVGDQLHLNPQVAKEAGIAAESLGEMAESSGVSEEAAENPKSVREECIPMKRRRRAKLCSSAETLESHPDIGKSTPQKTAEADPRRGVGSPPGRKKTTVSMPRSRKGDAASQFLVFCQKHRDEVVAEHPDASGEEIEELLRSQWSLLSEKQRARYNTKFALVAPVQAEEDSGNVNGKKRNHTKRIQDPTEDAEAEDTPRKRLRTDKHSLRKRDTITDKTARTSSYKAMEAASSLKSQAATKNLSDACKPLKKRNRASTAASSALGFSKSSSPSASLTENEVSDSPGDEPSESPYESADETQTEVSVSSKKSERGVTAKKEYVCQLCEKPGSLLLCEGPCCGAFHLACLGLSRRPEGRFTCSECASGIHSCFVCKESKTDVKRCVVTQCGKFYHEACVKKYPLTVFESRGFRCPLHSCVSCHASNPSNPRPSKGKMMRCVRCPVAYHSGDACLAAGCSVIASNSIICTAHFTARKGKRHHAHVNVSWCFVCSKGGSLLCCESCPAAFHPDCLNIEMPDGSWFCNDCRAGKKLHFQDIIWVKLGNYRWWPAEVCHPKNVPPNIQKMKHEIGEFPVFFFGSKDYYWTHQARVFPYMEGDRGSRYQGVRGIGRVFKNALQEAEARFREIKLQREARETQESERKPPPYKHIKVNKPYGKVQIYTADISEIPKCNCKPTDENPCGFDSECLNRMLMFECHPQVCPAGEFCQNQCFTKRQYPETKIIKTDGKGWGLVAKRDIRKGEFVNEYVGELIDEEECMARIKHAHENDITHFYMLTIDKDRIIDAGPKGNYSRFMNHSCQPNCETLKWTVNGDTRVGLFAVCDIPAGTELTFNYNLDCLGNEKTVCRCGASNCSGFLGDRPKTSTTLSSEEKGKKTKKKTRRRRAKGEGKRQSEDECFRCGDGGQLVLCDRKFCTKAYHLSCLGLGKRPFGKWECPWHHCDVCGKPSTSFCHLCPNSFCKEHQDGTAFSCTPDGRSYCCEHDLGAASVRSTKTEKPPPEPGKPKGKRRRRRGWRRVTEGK
# [17] = HEp-2 cell cytotoxicity, dose response, cytotoxicity control for RSV inhibitor project, HTS (AID 2410); type: functional; settings: human respiratory syncytial virus
# [18] = target: FAD-linked sulfhydryl oxidase ALR (Homo sapiens, UniProt P55789); experiment: inhibitors of human ALR sulfhydryl oxidase, dose response, biochemical, H2O2 detection, luminescence, cherry-pick (AID 493248)
# Chain of FAD-linked sulfhydryl oxidase ALR (P55789 whole entry): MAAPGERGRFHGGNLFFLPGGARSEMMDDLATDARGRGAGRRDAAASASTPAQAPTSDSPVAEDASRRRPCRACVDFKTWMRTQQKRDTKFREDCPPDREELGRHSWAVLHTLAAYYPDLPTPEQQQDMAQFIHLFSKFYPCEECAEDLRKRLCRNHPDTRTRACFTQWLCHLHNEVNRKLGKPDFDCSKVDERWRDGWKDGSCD
# Chain of 26S proteasome non-ATPase regulatory subunit 14 (O00487 whole entry): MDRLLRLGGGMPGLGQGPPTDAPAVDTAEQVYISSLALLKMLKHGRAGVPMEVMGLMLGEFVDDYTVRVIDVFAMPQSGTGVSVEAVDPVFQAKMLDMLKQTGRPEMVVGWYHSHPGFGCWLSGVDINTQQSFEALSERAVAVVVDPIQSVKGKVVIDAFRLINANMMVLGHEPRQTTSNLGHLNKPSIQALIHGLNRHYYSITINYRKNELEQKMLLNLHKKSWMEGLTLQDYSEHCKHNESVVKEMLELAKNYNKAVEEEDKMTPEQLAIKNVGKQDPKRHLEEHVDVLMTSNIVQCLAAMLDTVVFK
# Chain of Beta-galactosidase (Q8VNN2 whole entry): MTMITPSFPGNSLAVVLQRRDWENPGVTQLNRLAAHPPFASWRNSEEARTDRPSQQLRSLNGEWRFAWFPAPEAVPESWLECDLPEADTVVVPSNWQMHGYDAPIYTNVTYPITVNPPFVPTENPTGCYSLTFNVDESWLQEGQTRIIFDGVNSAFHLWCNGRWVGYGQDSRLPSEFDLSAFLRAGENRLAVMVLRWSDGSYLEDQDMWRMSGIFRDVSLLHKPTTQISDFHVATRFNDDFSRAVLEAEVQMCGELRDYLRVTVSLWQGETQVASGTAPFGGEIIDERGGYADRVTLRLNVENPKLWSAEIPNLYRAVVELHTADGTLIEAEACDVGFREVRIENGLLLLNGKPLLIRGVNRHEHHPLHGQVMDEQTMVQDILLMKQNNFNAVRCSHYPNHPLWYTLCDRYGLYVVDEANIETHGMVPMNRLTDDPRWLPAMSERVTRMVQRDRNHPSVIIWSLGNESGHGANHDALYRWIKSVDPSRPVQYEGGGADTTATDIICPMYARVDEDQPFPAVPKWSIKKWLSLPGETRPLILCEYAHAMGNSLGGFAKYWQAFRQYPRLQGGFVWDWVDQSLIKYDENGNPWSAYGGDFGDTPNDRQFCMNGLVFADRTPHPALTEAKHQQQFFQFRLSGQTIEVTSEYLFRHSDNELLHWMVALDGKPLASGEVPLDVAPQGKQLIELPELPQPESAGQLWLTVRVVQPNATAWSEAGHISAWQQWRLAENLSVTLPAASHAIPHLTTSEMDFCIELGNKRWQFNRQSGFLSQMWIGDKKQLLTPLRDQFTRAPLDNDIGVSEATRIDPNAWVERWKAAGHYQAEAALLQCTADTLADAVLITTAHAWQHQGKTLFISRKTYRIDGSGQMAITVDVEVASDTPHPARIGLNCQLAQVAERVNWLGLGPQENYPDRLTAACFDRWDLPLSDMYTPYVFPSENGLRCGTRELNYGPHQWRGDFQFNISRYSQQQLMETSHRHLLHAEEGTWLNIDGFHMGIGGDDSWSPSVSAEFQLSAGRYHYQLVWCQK
# Chain of 72 kDa type IV collagenase (P08253 whole entry): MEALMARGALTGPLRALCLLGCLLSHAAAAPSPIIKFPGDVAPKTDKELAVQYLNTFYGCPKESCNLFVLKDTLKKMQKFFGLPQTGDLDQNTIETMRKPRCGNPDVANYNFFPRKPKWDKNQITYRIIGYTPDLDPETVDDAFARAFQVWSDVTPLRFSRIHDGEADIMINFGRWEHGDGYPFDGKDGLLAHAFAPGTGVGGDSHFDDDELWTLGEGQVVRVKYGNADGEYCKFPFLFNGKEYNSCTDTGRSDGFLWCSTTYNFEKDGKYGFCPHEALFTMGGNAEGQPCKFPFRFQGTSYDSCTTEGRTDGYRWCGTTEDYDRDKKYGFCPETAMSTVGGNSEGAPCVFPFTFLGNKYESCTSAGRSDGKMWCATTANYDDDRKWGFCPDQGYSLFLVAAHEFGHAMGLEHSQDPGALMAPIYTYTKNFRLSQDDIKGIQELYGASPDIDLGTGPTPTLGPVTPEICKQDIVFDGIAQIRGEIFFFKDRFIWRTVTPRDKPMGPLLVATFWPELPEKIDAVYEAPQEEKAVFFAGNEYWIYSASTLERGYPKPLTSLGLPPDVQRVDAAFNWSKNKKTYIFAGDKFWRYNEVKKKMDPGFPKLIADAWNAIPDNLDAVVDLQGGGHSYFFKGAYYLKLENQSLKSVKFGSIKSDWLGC
smiles,measurement,setting,value
O=[N+]([O-])c1ccc(Sc2cccc3cccnc23)c([N+](=O)[O-])c1,AC50,INS1,1.18 µM (active)
same,AC50,[1],1.71 µM (active)
same,IC50,[2],27.6 µM (active)
same,AC50,[3],> 70 µM (inactive)
same,AC50,[4],15.2 µM (active)
same,IC50,[5],> 100 µM (inactive)
same,IC50,Prothrombin,> 100 µM (inactive)
CC(C)[C@H](NS(=O)(=O)c1ccc(F)cc1F)C(=O)N1CCC[C@H]1C(=O)NCCc1ccccc1Cl,IC50,cells [6],> 29.9 µM (inactive)
same,EC50,[7],2.89 µM (active)
same,IC50,[8],4.65 µM (active)
same,EC50,cells [9],> 29.9 µM (inactive)
C=CCn1c(SCc2c(C)noc2C)nc2sc(C)c(C)c2c1=O,IC50,[10],< 0.368 µM (active)
same,EC50,[11],> 53 µM (inactive)
same,IC50,[12],> 20 µM (inactive)
Cc1cccc(OCCCC(=O)Nc2ccc(Br)cc2)c1,IC50,[13],119 µM (inactive)
same,IC50,[14],83.3 µM (inactive)
same,IC50,[15],32 µM (inactive)
O=C(c1ccc(Cl)cc1)N1CCN(S(=O)(=O)/C=C/c2ccccc2)CC1,IC50,Beta-galactosidase,> 80 µM (inactive)
CCOC(=O)N[C@@H](Cc1cccnc1)C(=O)N1CCC[C@H]1C(=O)NCCc1ccccc1Cl,IC50,cells [6],> 29.9 µM (inactive)
same,EC50,[7],3.16 µM (active)
same,IC50,[8],8.93 µM (active)
same,EC50,cells [9],> 29.9 µM (inactive)
CN1CCN(c2ncnc3c2cnn3C)CC1,AC50,[16],13.3 µM (active)
Cc1nn(-c2ccccc2)c(C)c1/C=N/n1c(S)nnc1-c1ccccc1Br,CC50,[17],23.2 µM (active)
same,AC50,[18],3.44 µM (active)
same,IC50,[10],3.92 µM (active)
same,EC50,[11],> 53 µM (inactive)
same,IC50,[12],10.9 µM (active)
